Test results published in patent publication US20010053795A1, “Paradoxical pharmacology” (priority 2000, published 2001).

Tested on: spontaneously hypertensive rat (SHR)
Test: Blood pressure (tail-cuff) in spontaneously hypertensive rats after L-NAME infusion
Type: in vivo
Conditions: L-NAME 10 ml/kg/10 min for 10 min
Description: To determine a possible mechanism underlying the decrease in blood pressure after infusion of NE/E, L-NAME (N(omega)-nitro-L-arginine methyl ester), which is a nitric oxide synthase inhibitor, was infused at a rate of 10 ml/kg/10 min for a total 10 min. After infusion of the L-NAME, blood pressure was measured via the tail-cuff method. FIG. 3 illustrates the effect of the blood pressure after infusion of L-NAME.
Nitric oxide is tonically released by the activity of the constitutive endothelial and neuronal NO synthases (NOS). Nitric oxide is vasodilatory, and tonically produced NO maintains low blood pressure. During exercise, there is an increase in norepinephrine and an increase in nitric oxide production. […] The increase in production of nitric oxide is due to an activation of nitric oxide synthase, which in turn increase the levels of nitric oxide.

For `COC(=O)[C@@H](N)CCCNC(=N)N[N+](=O)[O-]` [L-NAME, N(omega)-nitro-L-arginine methyl ester], the “effect on blood pressure after L-NAME infusion” value (SHR treated with NE/E for 28 days) was “increase in blood pressure” and the “effect on blood pressure after L-NAME infusion” value (SHR treated with vehicle for 28 days (controls)) was “further decrease in the blood pressure”.
